Data from the supplement of paper PMC10307832.

Legend:
Assay in all cases: relative viability (nuclei count vs DMSO), 5 days (fraction); higher = more cells survive
[1] = compound: C[C@]12O[C@H](C[C@]1(O)CO)n1c3ccccc3c3c4c(c5c6ccccc6n2c5c31)CNC4=O [Lestaurtinib] + Nc1ncn([C@H]2C[C@H](O)[C@@H](CO)O2)c(=O)n1 [Decitabine] (partner 2 µM)
In short: (§1)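 Each reported value is a median over duplicate plates. It expresses relative viability: treated-well nuclei count divided by vehicle-well nuclei count. Lung cancer cell lines in 1536-well plates were dosed by pin tool a day after seeding, alone with one drug or with a fixed anchor-drug dose plus five library-drug doses (not always all listed) in √10 steps, and nuclei were counted after 5 days.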

[2] = compound: C1/C(=C\C2=CC=CS2)/C(=O)/C(=C/C3=CC=CS3)/C1 + CS(=O)(=O)N1CCN(Cc2cc3nc(-c4cccc5[nH]ncc45)nc(N4CCOCC4)c3s2)CC1 [Pictilisib] (partner 1 µM)
In short: as §1

[3] = compound: C[C@]12O[C@H](C[C@]1(O)CO)n1c3ccccc3c3c4c(c5c6ccccc6n2c5c31)CNC4=O [Lestaurtinib] + CS(=O)(=O)N1CCN(Cc2cc3nc(-c4cccc5[nH]ncc45)nc(N4CCOCC4)c3s2)CC1 [Pictilisib] (partner 1 µM)
In short: as §1

[4] = compound: C1/C(=C\C2=CC=CS2)/C(=O)/C(=C/C3=CC=CS3)/C1 + CS(=O)(=O)CCNCc1ccc(-c2ccc3ncnc(Nc4ccc(OCc5cccc(F)c5)c(Cl)c4)c3c2)o1 [Lapatinib] (partner 2 µM)
In short: as §1

Row | Cell Line | relative viability ([1]; first compound 0.005 µM) | relative viability ([1]; first compound 0.01581 µM) | relative viability ([1]; first compound 0.05 µM) | relative viability ([1]; first compound 0.1581 µM) | relative viability ([1]; first compound 0.5 µM) | relative viability ([2]; first compound 0.2 µM) | relative viability ([2]; first compound 0.6325 µM) | relative viability ([2]; first compound 2 µM) | relative viability ([2]; first compound 6.325 µM) | relative viability ([2]; first compound 20 µM) | relative viability ([3]; first compound 0.005 µM) | relative viability ([3]; first compound 0.01581 µM) | relative viability ([3]; first compound 0.05 µM) | relative viability ([3]; first compound 0.1581 µM) | relative viability ([3]; first compound 0.5 µM) | relative viability ([4]; first compound 0.2 µM) | relative viability ([4]; first compound 0.6325 µM) | relative viability ([4]; first compound 2 µM) | relative viability ([4]; first compound 6.325 µM) | relative viability ([4]; first compound 20 µM)
1 | LXF-289 | 0.312 | 0.428 | 0.374 | 0.364 | 0.315 | 0.814 | 0.772 | 0.821 | 0.699 | 0.797 | 0.715 | 0.756 | 0.475 | 0.523 | 0.247 | 0.926 | 0.915 | 0.886 | 0.792 | 0.91
2 | NCI-H23 | 0.349 | 0.315 | 0.339 | 0.295 | 0.228 | 0.557 | 0.495 | 0.535 | 0.551 | 0.542 | 0.5 | 0.468 | 0.353 | 0.375 | 0.204 | 0.918 | 1.4 | 1.44 | 0.861 | 1.12
3 | NCI-H322M | 0.755 | 0.784 | – | 0.647 | 0.756 | 0.541 | 0.526 | 0.654 | 0.538 | 0.522 | 0.493 | 0.5 | 0.445 | 0.443 | 0.401 | 0.619 | 0.648 | 0.657 | 0.568 | 0.582
4 | NCI-H358 | 0.219 | 0.212 | 0.15 | 0.12 | 0.144 | 0.37 | 0.312 | 0.412 | 0.182 | 0.453 | 0.346 | 0.28 | 0.28 | 0.221 | 0.181 | 0.435 | 0.482 | 0.475 | 0.459 | 0.424
5 | NCI-H460 | 0.639 | 0.519 | 0.499 | 0.548 | 0.305 | 0.365 | 0.279 | 0.453 | 0.303 | 0.346 | 0.315 | 0.392 | 0.298 | 0.224 | 0.201 | 1.07 | 1.2 | 0.929 | – | 0.893
6 | NCI-H520 | 0.62 | 0.59 | 0.502 | 0.327 | 0.247 | 0.284 | 0.369 | 0.303 | 0.277 | 0.311 | 0.279 | 0.319 | 0.211 | 0.228 | 0.18 | 0.912 | 0.896 | 0.786 | 0.817 | 0.763
7 | NCI-H596 | 1.04 | 1.55 | 0.936 | 1.26 | 1.07 | 0.412 | 0.419 | 0.378 | 0.368 | 0.391 | 0.375 | 0.378 | 0.375 | 0.31 | 0.293 | 1.13 | 1.03 | 1.1 | 1 | 1.02
8 | NCI-H647 | 0.415 | 0.404 | 0.337 | 0.311 | 0.173 | 0.439 | 0.329 | 0.563 | 0.382 | 0.379 | 0.413 | 0.289 | 0.197 | 0.193 | 0.105 | 1.13 | 1.26 | 1.28 | 0.763 | 1
